Calls of active or inactive are those of the source.

Common to all, as to format: functional
Assay [1] has as its target Dual specificity protein phosphatase 3 (Homo sapiens, UniProt P51452). Put plainly: VHR phosphatase inhibition, dose response, selectivity assay for STEP inhibitor project, biochemical (AID 602374). Particulars: read-out: IC50_Mean.
Assay [2] addresses Tyrosine-protein phosphatase non-receptor type 11 (Homo sapiens, UniProt Q06124). Put plainly: PTPN11 enzyme inhibitors – biochemical, selectivity assay for STEP inhibitor project, dose response (AID 602367). Particulars: read-out: IC50_Mean.
Assay [3] addresses Tyrosine-protein phosphatase non-receptor type 5 (Homo sapiens, UniProt P54829). The experiment in a line: PTPN5 enzyme inhibition – biochemical, fluorescence intensity, uHTS hits, confirmation (AID 602372). To be noted: read-out: IC50_Mean.
The target of assay [4] is Broad substrate specificity ATP-binding cassette transporter ABCG2 (Homo sapiens, UniProt Q9UNQ0). Put plainly: blockers of JC-1 export by ABCG2 – Ig-MXP3 cells, flow cytometry, dose response (AID 1690). For orientation: A flow cytometer gives signals particle by particle.
Broad substrate specificity ATP-binding cassette transporter ABCG2, sequence (Q9UNQ0 whole entry): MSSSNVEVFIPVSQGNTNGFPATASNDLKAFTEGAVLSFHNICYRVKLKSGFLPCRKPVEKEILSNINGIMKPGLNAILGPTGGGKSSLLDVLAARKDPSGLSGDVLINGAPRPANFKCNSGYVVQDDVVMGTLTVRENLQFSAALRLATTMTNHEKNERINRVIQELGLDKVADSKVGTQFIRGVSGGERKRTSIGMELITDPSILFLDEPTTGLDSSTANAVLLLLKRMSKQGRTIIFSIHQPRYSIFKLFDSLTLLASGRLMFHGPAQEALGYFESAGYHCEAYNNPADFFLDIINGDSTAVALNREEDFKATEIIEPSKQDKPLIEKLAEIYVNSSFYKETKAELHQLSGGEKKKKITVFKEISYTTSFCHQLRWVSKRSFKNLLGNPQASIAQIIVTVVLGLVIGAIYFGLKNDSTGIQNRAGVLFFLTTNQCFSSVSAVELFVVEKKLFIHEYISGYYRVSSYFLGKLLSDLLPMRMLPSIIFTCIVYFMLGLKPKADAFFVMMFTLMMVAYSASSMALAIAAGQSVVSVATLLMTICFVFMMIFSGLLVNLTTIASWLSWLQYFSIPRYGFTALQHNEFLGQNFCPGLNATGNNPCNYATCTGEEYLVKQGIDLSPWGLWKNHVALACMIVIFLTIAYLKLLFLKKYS
Assay [5] deals with ATP-dependent translocase ABCB1 (Homo sapiens, UniProt P08183). Put plainly: inhibition of P-gp mediated JC-1 efflux – Jurkat-DNR cells, flow cytometry, dose response (AID 1689).
ATP-dependent translocase ABCB1, sequence (P08183 whole entry): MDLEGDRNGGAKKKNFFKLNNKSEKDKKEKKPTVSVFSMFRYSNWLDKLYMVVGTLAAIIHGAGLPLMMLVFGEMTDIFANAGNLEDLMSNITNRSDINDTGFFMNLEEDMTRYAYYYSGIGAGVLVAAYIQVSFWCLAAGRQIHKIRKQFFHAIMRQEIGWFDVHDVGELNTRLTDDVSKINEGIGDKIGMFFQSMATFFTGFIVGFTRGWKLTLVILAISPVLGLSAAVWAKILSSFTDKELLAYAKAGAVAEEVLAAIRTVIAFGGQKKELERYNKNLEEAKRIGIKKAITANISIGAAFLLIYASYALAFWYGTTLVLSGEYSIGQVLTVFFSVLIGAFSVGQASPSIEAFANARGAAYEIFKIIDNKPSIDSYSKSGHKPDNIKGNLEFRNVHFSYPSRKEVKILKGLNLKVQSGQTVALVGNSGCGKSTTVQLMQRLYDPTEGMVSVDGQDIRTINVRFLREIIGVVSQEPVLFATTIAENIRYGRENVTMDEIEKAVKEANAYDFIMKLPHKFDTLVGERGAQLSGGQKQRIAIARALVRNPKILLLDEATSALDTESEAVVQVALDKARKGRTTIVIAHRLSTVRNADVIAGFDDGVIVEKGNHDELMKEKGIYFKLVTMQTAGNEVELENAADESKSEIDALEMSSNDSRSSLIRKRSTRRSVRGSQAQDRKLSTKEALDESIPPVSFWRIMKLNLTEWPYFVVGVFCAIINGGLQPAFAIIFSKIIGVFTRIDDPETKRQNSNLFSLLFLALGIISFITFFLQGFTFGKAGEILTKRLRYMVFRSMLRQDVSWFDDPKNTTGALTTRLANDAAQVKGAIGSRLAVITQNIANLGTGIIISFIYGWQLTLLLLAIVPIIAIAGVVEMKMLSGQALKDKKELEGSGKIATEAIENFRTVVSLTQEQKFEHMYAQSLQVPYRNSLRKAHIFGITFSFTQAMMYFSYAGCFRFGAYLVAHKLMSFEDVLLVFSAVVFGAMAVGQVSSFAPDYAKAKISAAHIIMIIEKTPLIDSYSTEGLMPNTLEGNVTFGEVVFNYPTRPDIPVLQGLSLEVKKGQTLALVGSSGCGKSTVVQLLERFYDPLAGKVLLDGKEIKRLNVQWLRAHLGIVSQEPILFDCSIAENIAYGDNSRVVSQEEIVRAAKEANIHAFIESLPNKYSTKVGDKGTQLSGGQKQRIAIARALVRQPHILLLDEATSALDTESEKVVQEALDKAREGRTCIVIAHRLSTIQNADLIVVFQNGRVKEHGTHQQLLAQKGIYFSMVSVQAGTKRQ
Assay [6] addresses Botulinum neurotoxin type F (Clostridium botulinum, UniProt P30996). Put plainly: High-throughput multiplex microsphere dose response for inhibitors of toxin protease, specifically Botulinum neurotoxin light chain F protease, compounds from Cherry Pick 02. Particulars: read-out: EC50_MICROM.
In assay [7] the target is Arf-GAP with SH3 domain, ANK repeat and PH domain-containing protein 1 (Homo sapiens, UniProt Q9ULH1).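 Note: biochemical fluorescence polarization dose–response screen measuring inhibition of ASAP1; ASAP1 GAP domain stimulating GTP hydrolysis by truncated human ARF1.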
Arf-GAP with SH3 domain, ANK repeat and PH domain-containing protein 1, sequence (Q9ULH1 whole entry, the tested form may be a part): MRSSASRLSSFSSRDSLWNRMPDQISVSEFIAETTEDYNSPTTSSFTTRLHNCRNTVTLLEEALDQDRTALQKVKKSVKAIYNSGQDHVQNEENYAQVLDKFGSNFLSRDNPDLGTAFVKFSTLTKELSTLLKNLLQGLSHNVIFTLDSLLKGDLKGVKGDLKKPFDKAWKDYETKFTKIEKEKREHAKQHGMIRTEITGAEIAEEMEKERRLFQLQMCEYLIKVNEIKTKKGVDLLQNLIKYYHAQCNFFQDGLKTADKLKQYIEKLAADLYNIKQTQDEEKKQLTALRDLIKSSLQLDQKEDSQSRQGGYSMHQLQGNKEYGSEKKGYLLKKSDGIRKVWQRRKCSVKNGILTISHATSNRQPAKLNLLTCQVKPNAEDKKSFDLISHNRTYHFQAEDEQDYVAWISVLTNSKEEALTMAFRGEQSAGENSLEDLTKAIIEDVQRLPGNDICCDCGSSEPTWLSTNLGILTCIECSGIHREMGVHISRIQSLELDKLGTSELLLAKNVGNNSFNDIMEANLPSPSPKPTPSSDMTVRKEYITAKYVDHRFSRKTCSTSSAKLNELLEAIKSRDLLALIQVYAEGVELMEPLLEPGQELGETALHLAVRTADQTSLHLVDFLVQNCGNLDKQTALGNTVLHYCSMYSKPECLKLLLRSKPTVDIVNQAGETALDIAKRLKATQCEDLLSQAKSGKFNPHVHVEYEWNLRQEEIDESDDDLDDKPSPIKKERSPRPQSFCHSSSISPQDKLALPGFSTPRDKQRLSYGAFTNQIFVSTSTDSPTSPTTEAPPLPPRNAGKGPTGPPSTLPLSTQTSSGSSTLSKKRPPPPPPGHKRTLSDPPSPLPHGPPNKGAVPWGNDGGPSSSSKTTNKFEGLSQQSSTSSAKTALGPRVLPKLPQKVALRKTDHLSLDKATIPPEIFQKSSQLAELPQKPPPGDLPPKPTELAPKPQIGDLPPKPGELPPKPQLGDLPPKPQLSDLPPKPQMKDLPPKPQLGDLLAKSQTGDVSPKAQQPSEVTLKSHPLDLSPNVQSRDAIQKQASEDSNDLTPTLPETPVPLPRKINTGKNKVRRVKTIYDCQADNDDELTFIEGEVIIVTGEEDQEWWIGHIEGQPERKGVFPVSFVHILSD
The target of assay [8] is T1, Low molecular weight phosphotyrosine protein phosphatase (Homo sapiens, UniProt P24666).
T1 sequence (P24666 whole entry): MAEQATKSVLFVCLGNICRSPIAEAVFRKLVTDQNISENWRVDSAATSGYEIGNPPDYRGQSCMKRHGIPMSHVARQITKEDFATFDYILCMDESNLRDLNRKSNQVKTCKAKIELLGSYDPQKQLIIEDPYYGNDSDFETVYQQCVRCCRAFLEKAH
To be noted: read-out: IC50_Mean.

Assay [9] addresses T1, Low molecular weight phosphotyrosine protein phosphatase. Particulars: read-out: IC50_Mean. This is another data set of the same source.
The target of assay [10] is T2, Tyrosine-protein phosphatase non-receptor type 22 (Homo sapiens, UniProt Q9Y2R2).
T2 sequence (Q9Y2R2 whole entry): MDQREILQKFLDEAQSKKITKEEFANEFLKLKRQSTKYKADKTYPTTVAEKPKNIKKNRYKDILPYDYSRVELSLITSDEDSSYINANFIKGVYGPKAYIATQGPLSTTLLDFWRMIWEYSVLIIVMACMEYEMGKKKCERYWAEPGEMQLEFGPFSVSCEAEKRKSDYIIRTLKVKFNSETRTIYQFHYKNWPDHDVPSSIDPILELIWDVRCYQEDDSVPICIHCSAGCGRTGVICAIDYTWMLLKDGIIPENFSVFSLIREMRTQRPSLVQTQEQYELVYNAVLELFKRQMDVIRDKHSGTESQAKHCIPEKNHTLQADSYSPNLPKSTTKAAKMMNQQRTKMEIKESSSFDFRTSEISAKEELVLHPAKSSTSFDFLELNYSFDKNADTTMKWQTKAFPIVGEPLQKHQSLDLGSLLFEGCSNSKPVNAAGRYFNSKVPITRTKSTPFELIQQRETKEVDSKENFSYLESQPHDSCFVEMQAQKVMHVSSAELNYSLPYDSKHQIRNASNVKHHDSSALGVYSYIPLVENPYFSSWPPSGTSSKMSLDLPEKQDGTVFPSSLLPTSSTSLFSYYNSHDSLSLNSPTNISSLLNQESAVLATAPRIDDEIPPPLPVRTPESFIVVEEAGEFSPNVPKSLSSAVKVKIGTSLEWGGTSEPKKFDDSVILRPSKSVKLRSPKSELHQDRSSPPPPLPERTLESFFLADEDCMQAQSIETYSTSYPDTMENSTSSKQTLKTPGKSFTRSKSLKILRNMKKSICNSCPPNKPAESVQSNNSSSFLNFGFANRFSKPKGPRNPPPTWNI
Put plainly: PTPN22 enzyme inhibitors – biochemical, fluorescence, LYP catalytic domain, selectivity assay for LMPTP inhibitor project, dose response (AID 652006). Particulars: read-out: IC50_Mean.

Assay [11] concerns the target T3, Carboxy-terminal domain RNA polymerase II polypeptide A small phosphatase 1 (Homo sapiens, UniProt Q9GZU7).
T3 sequence (Q9GZU7 whole entry): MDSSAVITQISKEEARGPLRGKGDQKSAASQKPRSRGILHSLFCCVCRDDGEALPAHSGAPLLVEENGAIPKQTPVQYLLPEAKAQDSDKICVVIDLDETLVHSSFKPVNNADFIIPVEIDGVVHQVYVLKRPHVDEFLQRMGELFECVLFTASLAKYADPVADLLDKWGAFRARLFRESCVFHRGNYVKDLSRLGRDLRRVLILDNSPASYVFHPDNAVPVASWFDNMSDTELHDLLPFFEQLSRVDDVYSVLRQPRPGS
The experiment in a line: CTDSP1 inhibitors, concentration-response, biochemical, absorbance readout, ultra-high-throughput screen actives (AID 540297).

Botulinum neurotoxin type F, sequence (P30996 1-436 limits assumed): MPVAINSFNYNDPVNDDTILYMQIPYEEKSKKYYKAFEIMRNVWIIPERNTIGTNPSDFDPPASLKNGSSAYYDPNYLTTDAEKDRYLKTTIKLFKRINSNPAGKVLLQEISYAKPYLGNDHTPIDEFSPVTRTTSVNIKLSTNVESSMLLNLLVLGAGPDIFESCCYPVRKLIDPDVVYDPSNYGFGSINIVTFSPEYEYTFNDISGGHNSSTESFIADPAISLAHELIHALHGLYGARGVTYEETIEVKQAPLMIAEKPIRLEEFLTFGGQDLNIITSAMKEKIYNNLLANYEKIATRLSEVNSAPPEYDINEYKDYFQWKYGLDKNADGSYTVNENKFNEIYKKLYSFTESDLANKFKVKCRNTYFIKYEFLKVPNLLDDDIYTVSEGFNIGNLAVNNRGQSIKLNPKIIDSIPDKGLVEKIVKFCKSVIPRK
Dual specificity protein phosphatase 3, sequence (P51452 whole entry): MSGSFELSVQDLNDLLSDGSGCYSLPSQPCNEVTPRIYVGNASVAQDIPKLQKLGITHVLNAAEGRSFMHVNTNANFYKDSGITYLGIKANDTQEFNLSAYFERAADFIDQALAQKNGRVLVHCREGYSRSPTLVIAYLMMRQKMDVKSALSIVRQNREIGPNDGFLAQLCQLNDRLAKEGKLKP
Tyrosine-protein phosphatase non-receptor type 5, sequence (P54829 whole entry): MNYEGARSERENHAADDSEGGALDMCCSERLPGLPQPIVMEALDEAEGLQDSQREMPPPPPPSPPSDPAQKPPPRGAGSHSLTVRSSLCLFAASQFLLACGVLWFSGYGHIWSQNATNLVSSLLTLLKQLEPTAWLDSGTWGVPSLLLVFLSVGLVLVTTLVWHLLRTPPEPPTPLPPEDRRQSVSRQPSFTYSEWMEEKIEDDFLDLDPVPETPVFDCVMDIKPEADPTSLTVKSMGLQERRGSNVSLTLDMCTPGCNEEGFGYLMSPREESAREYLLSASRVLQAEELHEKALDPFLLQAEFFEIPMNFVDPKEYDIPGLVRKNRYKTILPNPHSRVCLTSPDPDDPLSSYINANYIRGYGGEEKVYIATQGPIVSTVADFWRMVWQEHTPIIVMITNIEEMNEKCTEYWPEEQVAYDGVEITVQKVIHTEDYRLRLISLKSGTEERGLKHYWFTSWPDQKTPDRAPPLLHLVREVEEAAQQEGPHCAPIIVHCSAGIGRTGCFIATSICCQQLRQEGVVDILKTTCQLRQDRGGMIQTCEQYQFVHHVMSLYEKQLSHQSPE
Tyrosine-protein phosphatase non-receptor type 11, sequence (Q06124 whole entry): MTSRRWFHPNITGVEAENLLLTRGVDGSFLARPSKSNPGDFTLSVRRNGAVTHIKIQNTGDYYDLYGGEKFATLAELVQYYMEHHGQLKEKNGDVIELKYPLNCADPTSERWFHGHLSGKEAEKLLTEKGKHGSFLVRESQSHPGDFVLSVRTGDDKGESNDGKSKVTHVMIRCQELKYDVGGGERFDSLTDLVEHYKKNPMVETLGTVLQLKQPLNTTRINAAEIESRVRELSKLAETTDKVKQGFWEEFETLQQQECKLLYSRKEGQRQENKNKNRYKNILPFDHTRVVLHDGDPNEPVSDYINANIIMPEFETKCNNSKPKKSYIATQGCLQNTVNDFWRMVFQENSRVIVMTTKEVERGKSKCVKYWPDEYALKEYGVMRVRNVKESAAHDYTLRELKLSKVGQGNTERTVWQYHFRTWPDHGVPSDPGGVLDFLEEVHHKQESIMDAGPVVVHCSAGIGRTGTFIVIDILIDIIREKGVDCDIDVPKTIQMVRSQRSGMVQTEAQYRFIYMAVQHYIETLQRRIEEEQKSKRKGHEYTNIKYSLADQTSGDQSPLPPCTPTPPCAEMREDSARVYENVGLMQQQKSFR

As for `NS(=O)(=O)c1ccccc1`, the IC50 is 1.5 µM (active) in assay [1], 8.42 µM (active) in [2] and 28.6 µM (inactive) in assay [3].
As to `CCOC(=O)c1cccc(NC(=O)c2cnc3ccccc3n2)c1`, the EC50 in assay [4] is 11.8 µM (active); in assay [5], 30.7 µM (inactive).
`COc1ccc(C(CNC(=O)c2ccc(OC)c(S(=O)(=O)N3CCCC3)c2)N2CCCC2)cc1` (stereo unspecified): the EC50 in assay [6] is > 20 µM (inactive).
Take `CC(=O)c1cccc(NC(=O)CSc2ccc(-c3ccc4c(c3)OCO4)nn2)c1`: in assay [7], the IC50 was 33.9 µM (inactive).
Take `Cc1cc2oc(=O)cc(-c3cc4ccccc4o3)c2cc1O`: the IC50 was 21.5 µM (inactive) in assay [8], 20.7 µM (inactive) in assay [9], 29.1 µM (inactive) in assay [10] and 3.8 µM (active) in assay [11].

These data come from ChEMBL document CHEMBL1201862, “PubChem BioAssay data set” (2004).
